Assay results taken from patent US12691111B2, “SETD2 inhibitors and related methods and uses, including combination therapies” (EPIZYME, INC., priority 2020, dated 2026).

Assays:
Assay in all cases: 7-day co-treatment combination study, CellTiter-Glo, Loewe Volume
KMS-11 = conditions: for Combination effect (Loewe Volume class) of Cpd. No. 15 with combination partner: KMS-11 multiple myeloma cells, 7-day co-treatment with Cpd. No. 15
MM1.S = type: cell-based; conditions: MM1.S multiple myeloma cells, 7-day co-treatment with Cpd. No. 15
Experimental: (§1) Multiple myeloma (MM) and mantle cell lymphoma (MCL) Cell line cultures in log-linear growth rate were treated with combinations of Cpd. No. 15 and combination partners according to a co-treatment model. […] No. 15 and the combination partner. […] Each combination was tested in quadruplicate wells. The final concentration of DMSO (vehicle) in the assay was 0.1% v/v. Fifty microliters of cell line suspension were directly dispensed to the assay-ready plates with an automated multichannel dispenser on to 384-well assay-ready plates. Assay plates were incubated for seven days in a humidified atmosphere of 5% CO2 at 37° C. Quantification of the effect of single agents or combinations on cell viability was performed through measurement of cellular adenosine triphosphate (ATP) using a CellTiter-Glo® (Promega, MadisonWIs.) Luminescent Cell Viability Assay. Luminescence was detected using a SpectraMax M5 microplate reader (Molecular Devices, Sunnyvale, CA). Concentration response plots were generated in GraphPad Prism version 7.0 for Windows, GraphPad Software, (La Jolla, CA) and curves fitted to a four-parameter logistic model with variable slope. Percent of inhibition was calculated at each treatment concentration.
(§2) The results of these combinations are summarized in Tables A and B (multiple myeloma cell lines), and Tables C and D (mantle cell lymphoma cell lines).

RPMI-8226 = type: cell-based; conditions: RPMI-8226 multiple myeloma cells, 7-day co-treatment with Cpd. No. 15
Experimental: as §1, §2

NCI-H929 = type: cell-based; conditions: NCI-H929 multiple myeloma cells, 7-day co-treatment with Cpd. No. 15
Experimental: as §1, §2

L363 = type: cell-based; conditions: L363 multiple myeloma cells, 7-day co-treatment with Cpd. No. 15
Experimental: as §1, §2

KMS-28-BM = type: cell-based; conditions: KMS-28-BM multiple myeloma cells, 7-day co-treatment with Cpd. No. 15
Experimental: as §1, §2

KMS34 = type: cell-based; conditions: KMS34 multiple myeloma cells, 7-day co-treatment with Cpd. No. 15
Experimental: as §1, §2

Structure (SMILES): Cc1nc2cccc(N)c2c(=O)n1C1CCC(=O)NC1=O (centres unmarked) [CC-122]
- Combination effect (Loewe Volume class) of Cpd. No. 15 with combination partner (KMS-11): Synergy (VLoewe>1: synergy)
- Combination effect (Loewe Volume class) of Cpd. No. 15 with combination partner (MM1.S): Additivity (between 1 and −1: additivity)
- Combination effect (Loewe Volume class) of Cpd. No. 15 with combination partner (RPMI-8226): Additivity (between 1 and −1: additivity)
- Combination effect (Loewe Volume class) of Cpd. No. 15 with combination partner (NCI-H929): Synergy (VLoewe>1: synergy)
- Combination effect (Loewe Volume class) of Cpd. No. 15 with combination partner (L363): Additivity (between 1 and −1: additivity)
- Combination effect (Loewe Volume class) of Cpd. No. 15 with combination partner (KMS-28-BM): Additivity (between 1 and −1: additivity)
- Combination effect (Loewe Volume class) of Cpd. No. 15 with combination partner (KMS34): Synergy (VLoewe>1: synergy)

Structure (SMILES): C[C@@H]1C[C@H]2[C@@H]3CCC4=CC(=O)C=C[C@]4(C)[C@@]3(F)[C@@H](O)C[C@]2(C)[C@@]1(O)C(=O)CO [Dexamethasone, dexamethasone]
- Combination effect (Loewe Volume class) of Cpd. No. 15 with combination partner (KMS-11): Synergy (VLoewe>1: synergy)
- Combination effect (Loewe Volume class) of Cpd. No. 15 with combination partner (MM1.S): Additivity (between 1 and −1: additivity)
- Combination effect (Loewe Volume class) of Cpd. No. 15 with combination partner (RPMI-8226): Synergy (VLoewe>1: synergy)
- Combination effect (Loewe Volume class) of Cpd. No. 15 with combination partner (NCI-H929): Synergy (VLoewe>1: synergy)
- Combination effect (Loewe Volume class) of Cpd. No. 15 with combination partner (L363): Synergy (VLoewe>1: synergy)
- Combination effect (Loewe Volume class) of Cpd. No. 15 with combination partner (KMS-28-BM): Additivity (between 1 and −1: additivity)
- Combination effect (Loewe Volume class) of Cpd. No. 15 with combination partner (KMS34): Synergy (VLoewe>1: synergy)

Structure (SMILES): O=C(/C=C\n1cnc(-c2cc(C(F)(F)F)cc(C(F)(F)F)c2)n1)NNc1cnccn1 [Selinexor, selinexor]
- Combination effect (Loewe Volume class) of Cpd. No. 15 with combination partner (KMS-11): Additivity (between 1 and −1: additivity)
- Combination effect (Loewe Volume class) of Cpd. No. 15 with combination partner (MM1.S): Additivity (between 1 and −1: additivity)
- Combination effect (Loewe Volume class) of Cpd. No. 15 with combination partner (RPMI-8226): Additivity (between 1 and −1: additivity)
- Combination effect (Loewe Volume class) of Cpd. No. 15 with combination partner (NCI-H929): Synergy (VLoewe>1: synergy)
- Combination effect (Loewe Volume class) of Cpd. No. 15 with combination partner (L363): Additivity (between 1 and −1: additivity)
- Combination effect (Loewe Volume class) of Cpd. No. 15 with combination partner (KMS-28-BM): Additivity (between 1 and −1: additivity)
- Combination effect (Loewe Volume class) of Cpd. No. 15 with combination partner (KMS34): Synergy (VLoewe>1: synergy)

Structure (SMILES): CCN(c1cc(C#CCN2CCOCC2)cc(C(=O)NCc2c(C)cc(C)[nH]c2=O)c1C)[C@H]1CC[C@H](N(C)CCOC)CC1 [EPZ-11989]
- Combination effect (Loewe Volume class) of Cpd. No. 15 with combination partner (KMS-11): Additivity (between 1 and −1: additivity)
- Combination effect (Loewe Volume class) of Cpd. No. 15 with combination partner (NCI-H929): No Effect
- Combination effect (Loewe Volume class) of Cpd. No. 15 with combination partner (KMS-28-BM): Additivity (between 1 and −1: additivity)

Structure (SMILES): CC(=O)N1CCN([C@H]2CCC[C@@H](NC(=O)c3cc4c(F)ccc(C)c4[nH]3)C2)CC1 [Cpd. No. 15, N-((1R,3S)-3-(4-acetylpiperazin-1-yl)cyclohexyl)-4-fluoro-7-methyl-1H-indole-2-carboxamide]
- anti-proliferative activity of Cpd. No. 15 combined with pomalidomide (KMS-11; KMS-11 cells, 7-day co-treatment study, combined with pomalidomide (FIG. 3)): synergistic

Structure (SMILES): Cc1[nH]c2ccccc2c1CCNCc1ccc(/C=C/C(=O)NO)cc1 [Panobinostat, panobinostat]
- Combination effect (Loewe Volume class) of Cpd. No. 15 with combination partner (KMS-11): Additivity (between 1 and −1: additivity)
- Combination effect (Loewe Volume class) of Cpd. No. 15 with combination partner (MM1.S): Additivity (between 1 and −1: additivity)
- Combination effect (Loewe Volume class) of Cpd. No. 15 with combination partner (RPMI-8226): Additivity (between 1 and −1: additivity)
- Combination effect (Loewe Volume class) of Cpd. No. 15 with combination partner (NCI-H929): Synergy (VLoewe>1: synergy)
- Combination effect (Loewe Volume class) of Cpd. No. 15 with combination partner (L363): Additivity (between 1 and −1: additivity)
- Combination effect (Loewe Volume class) of Cpd. No. 15 with combination partner (KMS-28-BM): Additivity (between 1 and −1: additivity)
- Combination effect (Loewe Volume class) of Cpd. No. 15 with combination partner (KMS34): Synergy (VLoewe>1: synergy)
